Data reported in BigSolDB 2.1.

CC(=O)Oc1ccc(C(c2ccc(OC(C)=O)cc2)c2ccccn2)cc1
solubility (mole fraction) (in 1,4-dioxane, 288.15 K): 0.00241 | solubility (mole fraction) (in 1,4-dioxane, 293.15 K): 0.00274 | solubility (mole fraction) (in 1,4-dioxane, 298.15 K): 0.00307 | solubility (mole fraction) (in 1,4-dioxane, 303.15 K): 0.00343 | solubility (mole fraction) (in 1,4-dioxane, 308.15 K): 0.00378 | solubility (mole fraction) (in 1,4-dioxane, 313.15 K): 0.00424 | solubility (mole fraction) (in DMF, 273.15 K): 0.00201 | solubility (mole fraction) (in DMF, 278.15 K): 0.00228 | solubility (mole fraction) (in DMF, 283.15 K): 0.00255 | solubility (mole fraction) (in DMF, 288.15 K): 0.00291 | solubility (mole fraction) (in DMF, 293.15 K): 0.00325 | solubility (mole fraction) (in DMF, 298.15 K): 0.00368 | solubility (mole fraction) (in DMF, 303.15 K): 0.00407 | solubility (mole fraction) (in DMF, 308.15 K): 0.00447 | solubility (mole fraction) (in DMF, 313.15 K): 0.00496 | solubility (mole fraction) (in NMP, 273.15 K): 0.00187 | solubility (mole fraction) (in NMP, 278.15 K): 0.0021 | solubility (mole fraction) (in NMP, 283.15 K): 0.00236 | solubility (mole fraction) (in NMP, 288.15 K): 0.00264 | solubility (mole fraction) (in NMP, 293.15 K): 0.00295 | solubility (mole fraction) (in NMP, 298.15 K): 0.0033 | solubility (mole fraction) (in NMP, 303.15 K): 0.00372 | solubility (mole fraction) (in NMP, 308.15 K): 0.00418 | solubility (mole fraction) (in NMP, 313.15 K): 0.00474 | solubility (mole fraction) (in acetone, 273.15 K): 0.00126 | solubility (mole fraction) (in acetone, 278.15 K): 0.00153 | solubility (mole fraction) (in acetone, 283.15 K): 0.00181 | solubility (mole fraction) (in acetone, 288.15 K): 0.00212 | solubility (mole fraction) (in acetone, 293.15 K): 0.00246 | solubility (mole fraction) (in acetone, 298.15 K): 0.00281 | solubility (mole fraction) (in acetone, 303.15 K): 0.00318 | solubility (mole fraction) (in acetone, 308.15 K): 0.00359 | solubility (mole fraction) (in acetone, 313.15 K): 0.00403 | solubility (mole fraction) (in acetonitrile, 273.15 K): 0.000983 | solubility (mole fraction) (in acetonitrile, 278.15 K): 0.00115 | solubility (mole fraction) (in acetonitrile, 283.15 K): 0.00136 | solubility (mole fraction) (in acetonitrile, 288.15 K): 0.0016 | solubility (mole fraction) (in acetonitrile, 293.15 K): 0.00185 | solubility (mole fraction) (in acetonitrile, 298.15 K): 0.00215 | solubility (mole fraction) (in acetonitrile, 303.15 K): 0.00243 | solubility (mole fraction) (in acetonitrile, 308.15 K): 0.00274 | solubility (mole fraction) (in acetonitrile, 313.15 K): 0.00308 | solubility (mole fraction) (in ethanol, 273.15 K): 4.5e-05 | solubility (mole fraction) (in ethanol, 278.15 K): 5.8e-05 | solubility (mole fraction) (in ethanol, 283.15 K): 7.5e-05 | solubility (mole fraction) (in ethanol, 288.15 K): 9.1e-05 | solubility (mole fraction) (in ethanol, 293.15 K): 0.00011 | solubility (mole fraction) (in ethanol, 298.15 K): 0.00013 | solubility (mole fraction) (in ethanol, 303.15 K): 0.000159 | solubility (mole fraction) (in ethanol, 308.15 K): 0.000194 | solubility (mole fraction) (in ethanol, 313.15 K): 0.00024 | solubility (mole fraction) (in ethyl acetate, 273.15 K): 0.000724 | solubility (mole fraction) (in ethyl acetate, 278.15 K): 0.000884 | solubility (mole fraction) (in ethyl acetate, 283.15 K): 0.00107 | solubility (mole fraction) (in ethyl acetate, 288.15 K): 0.00126 | solubility (mole fraction) (in ethyl acetate, 293.15 K): 0.00148 | solubility (mole fraction) (in ethyl acetate, 298.15 K): 0.00171 | solubility (mole fraction) (in ethyl acetate, 303.15 K): 0.00198 | solubility (mole fraction) (in ethyl acetate, 308.15 K): 0.00228 | solubility (mole fraction) (in ethyl acetate, 313.15 K): 0.00263 | solubility (mole fraction) (in isopropanol, 273.15 K): 3.8e-05 | solubility (mole fraction) (in isopropanol, 278.15 K): 5.2e-05 | solubility (mole fraction) (in isopropanol, 283.15 K): 6.5e-05 | solubility (mole fraction) (in isopropanol, 288.15 K): 8.1e-05 | solubility (mole fraction) (in isopropanol, 293.15 K): 9.8e-05 | solubility (mole fraction) (in isopropanol, 298.15 K): 0.000118 | solubility (mole fraction) (in isopropanol, 303.15 K): 0.000142 | solubility (mole fraction) (in isopropanol, 308.15 K): 0.000166 | solubility (mole fraction) (in isopropanol, 313.15 K): 0.000204 | solubility (mole fraction) (in methanol, 273.15 K): 4.9e-05 | solubility (mole fraction) (in methanol, 278.15 K): 6.6e-05 | solubility (mole fraction) (in methanol, 283.15 K): 8.1e-05 | solubility (mole fraction) (in methanol, 288.15 K): 0.000101 | solubility (mole fraction) (in methanol, 293.15 K): 0.000123 | solubility (mole fraction) (in methanol, 298.15 K): 0.000147 | solubility (mole fraction) (in methanol, 303.15 K): 0.000171 | solubility (mole fraction) (in methanol, 308.15 K): 0.000207 | solubility (mole fraction) (in methanol, 313.15 K): 0.000254 | solubility (mole fraction) (in n-butanol, 273.15 K): 7.1e-05 | solubility (mole fraction) (in n-butanol, 278.15 K): 8.8e-05 | solubility (mole fraction) (in n-butanol, 283.15 K): 0.000106 | solubility (mole fraction) (in n-butanol, 288.15 K): 0.000131 | solubility (mole fraction) (in n-butanol, 293.15 K): 0.00016 | solubility (mole fraction) (in n-butanol, 298.15 K): 0.00019 | solubility (mole fraction) (in n-butanol, 303.15 K): 0.000223 | solubility (mole fraction) (in n-butanol, 308.15 K): 0.000269 | solubility (mole fraction) (in n-butanol, 313.15 K): 0.000324 | solubility (mole fraction) (in n-propanol, 273.15 K): 5.6e-05 | solubility (mole fraction) (in n-propanol, 278.15 K): 7.3e-05 | solubility (mole fraction) (in n-propanol, 283.15 K): 9.2e-05 | solubility (mole fraction) (in n-propanol, 288.15 K): 0.000115 | solubility (mole fraction) (in n-propanol, 293.15 K): 0.000141 | solubility (mole fraction) (in n-propanol, 298.15 K): 0.00017 | solubility (mole fraction) (in n-propanol, 303.15 K): 0.000199 | solubility (mole fraction) (in n-propanol, 308.15 K): 0.000242 | solubility (mole fraction) (in n-propanol, 313.15 K): 0.000304 | solubility (mole fraction) (in toluene, 273.15 K): 0.00044 | solubility (mole fraction) (in toluene, 278.15 K): 0.000533 | solubility (mole fraction) (in toluene, 283.15 K): 0.000648 | solubility (mole fraction) (in toluene, 288.15 K): 0.00076 | solubility (mole fraction) (in toluene, 293.15 K): 0.000895 | solubility (mole fraction) (in toluene, 298.15 K): 0.00105 | solubility (mole fraction) (in toluene, 303.15 K): 0.00122 | solubility (mole fraction) (in toluene, 308.15 K): 0.00141 | solubility (mole fraction) (in toluene, 313.15 K): 0.00161
